The record followed here is US12274683B2 (Bayer HealthCare LLC, priority 2019, dated 2025).

For this assay, the system named is inflammation/edema induced by carrageenan-injection into the footpads of Sprague Dawley (SD) rats. Description: Carrageenan-induced inflammation rat paw test (Example 3). The following applies: at necropsy about 24 h post-carrageenan, N=10, SE in line below. (Carrageenan injected into the paw causes an acute inflammation.)

Experimental: Efficacy evaluation was based on gait analysis, von Frey absolute thresholds and ankle caliper differentials recorded over 24 h after initial carrageenan injection, and paw differential weights following euthanasia of the test subjects.
Experimental Design. Male Sprague Dawley (Envigo RMS, Inc., Indianapolis) were weighed on Day 1 (mean 285 g) and randomized by body weight into treatment groups. On Day 0-1, animals in Groups 3-11 were dosed with topical compounds on 2-minute intervals according to the dose schedules in Table 10. […] Gait and von Frey analyses were conducted at time points of 2 h, 4 h, 6 h, 8 h, and 24 h post-carrageenan injection; ankle caliper measurements were taken immediately following gait assessment. […]
Gait Analysis. […] Gait was scored visually as follows (descriptions refer to diseased leg): • 0=Normal, approximately equal ink staining to normal paw. • 1=Slight limp/pain. […]
Testing began with three applications of the 4.31 hair. […] Responses were recorded as either a 0 (no response) or a 1 (response). […]
Testing was done on hind (heel) portions of the hind paw. Testers monitored the animals for hyper-responding or freezing, in which case animals were left alone until calm.

For the molecule `COc1ccc2cc([C@H](C)C(=O)O)ccc2c1` [Naproxen (oral), Naproxen], the “Paw Weight Difference (R − L)” value is “‡0.410 g”. Further, the “Paw Weight Difference (R − L)” value (listed as oral Naproxen) is listed as “significantly reduced”.
